This note sets out measurements from patent US20210386828A1, “METHODS FOR ENHANCING CANCER IMMUNOTHERAPY” (The Regents of the University of California, priority 2018, published 2021).

SMILES strings stand for the structures.

Assay [1] deals with bone marrow (BM)-derived macrophages. Briefly: Bone marrow derived macrophages, qRT-PCR and flow cytometry. The assay is classed as cell-based, mouse.
Assay [2] concerns Myc-CaP cells. Nature of the assay: Nuclear abundance of transcription factors (IB, flow cytometry). The settings on record: 2 μM Oxali. The assay is classed as cell-based, mouse.
From the text: Each dot represents an experiment and horizontal lines denote the median.
Another assay deals with Myc-CaP and TRC2 cells. Nature of the assay: Immunoblot of immunoproteasome subunits PSMB8 and PSMB9. The settings on record: low-dose.
Assay [3] relates to histone acetyltransferase (HAT). Nature of the assay: HAT activity in lysates of treated cells.
The subject of assay [4] is s.c. Myc-CaP, B16 or YUMM1.7 tumors. Briefly: Growth of subcutaneous tumors in mice under weekly Oxali and/or anti-PD-L1. Format: in vivo, mouse. On the procedure: FIGS. 7A-7G are pictorial and graphical diagrams showing that IFNγR2 induction is needed for the Oxali-potentiated response to anti-PDL1 therapy. […] After four treatment cycles, during which tumor size was measured, the mice were euthanized and analyzed. Significance was determined by Mann-Whitney and t-tests. Transient Cas9 expression was used to avoid any immune response to Cas9-molecules.
FIGS. 14A-14J are graphical diagrams showing that IFNγR2 expression is needed for platinoid-enhanced anti-PD-L1 responsiveness. […] After three cycles, the mice were euthanized, and tumor volume was determined. Significance was determined by t-tests (n=3). […] Tumor volume was determined using caliper. After three treatment cycles, the mice were euthanized and analyzed. Significance was determined by t-tests. Dots show averages and the brackets indicate±SEM (n=3). […] Each dot represents a mouse and each horizontal line indicates mean±SEM. […] Transient Cas9 expression was used to avoid any immune response to Cas9. Tumor growth was monitored using a caliper and analyzed using t-test. Each dot represents average and the brackets are SEM (n=3-5). […] Each dot represents a mouse and each horizontal line indicates the median.
The synergistic inhibition of Myc-CaP tumor growth by Oxali+anti-PD-L1 was attenuated by IFNγR2 ablation (FIGS. 7A and 14E). […]

For a further assay, the system named is HDACs. Briefly: HDAC enzyme activity in extracts of treated cells. As to conditions: after 6 hours.
The subject of assay [5] is TRC2 cells expressing ovalbumin variants. As to conditions: Oxali-treated TRC2-N4 cells with OT-I CD8+ T cells.
Method: FIGS. 2J-2L show TRC2 cells stable transfected with vectors expressing high, medium, and low affinity variants of Ovalbumin were incubated with 4 μM Oxali and/or CFSE-labeled OT-I cells for 72 hr and analyzed by flow cytometry using an antibody that recognizes [sequence] (SEQ ID NO: 24) bound to H-2Kb (FIG. 2J). The number of OT-I cells in each culture (FIG. 2K) and percentage of vital TRC2 cells (FIG. 2L) were determined by flow cytometry.
The nature of assay [6]: Cell death in vitro at the low Oxali dose. The assay is classed as cell-based. The settings on record: Oxali dose used in the experiments (low dose). From the text:
Thus, for purposed of this disclosure, the term “low dose” may include a non-ICD amount of a cytostatic agent or a platinoid.
In the past, Oxali was studied as a prototype of anticancer drugs that are capable of inducing immunogenic cell death (ICD) and T-cell priming (Galluzzi et al., 2015). However, the exact mechanism of ICD induction is poorly defined, and it is not clear whether Oxali and similar drugs exert their immunogenic activity solely via ICD. Other studies have reported Oxali and several other platinoids to function as inducers of the integrated stress response (ISR) (Bruno et al., 2017; Kepp et al., 2015). Nevertheless, the mechanism of ISR activation by platinoids and its relevance for their immunostimulatory activity is unknown. […] Oxali treatment also results in induction of Interferon gamma receptor 2 (IFNγR2), through NF-κB signaling, which potentiates the response of MHC-I-expressing cancer cells to IFNγ produced by CD8^+ T cells that have been reinvigorated by ICI administration.

Assay [7] concerns Myc-CaP cells. Nature of the assay: Immunoblot of IRF1 and phosphorylated STAT1. The assay is classed as cell-based, mouse. The text has this: Protein loading was confirmed with tubulin antibodies.
The basis for the synergy between low-dose Oxali and IFNγ was investigated. […] Given the ability of Oxali to induce Ifngr2 mRNA expression, not only in Myc-CaP cells (FIG. 2D) but also in mouse and human melanoma cell lines (FIGS. 11C and 11D), it was postulated that the synergistic activation of IRF1 and STAT1 by Oxali plus IFNγ may be due to IFNγR2 induction.

In the case of `O=C1[O][Pt]2([NH][C@@H]3CCCC[C@H]3[NH]2)[O]C1=O` [Oxali, oxaliplatin], the “MHC-I machinery component expression” value in assay [1] is “upregulated”. The MHC-II surface expression entry in assay [1] (Oxali alone) was “did not respond to Oxali alone”. Besides, in assay [1] (plus IFNγ), the “MHC-II expression in macrophages co-stimulated with IFNγ” value is given as “potentiated MHC-II expression”. For the same compound, in the assay on Myc-CaP cells [2], the “nuclear abundance of p65, NF-κB, CREB1, ATF3, P-ATM and JunB” value is on record as “persistent increases”. Further, the “PSMB8 and PSMB9 protein expression” value with Myc-CaP and TRC2 cells was “induced”. The “increase in nuclear HAT activity” value in assay [3] (after 3 hr of Oxali addition) came out at 4 fold. Besides, in assay [3] (within 3 hr), the HAT enzymatic activity result is “increased”. For the same compound, in [4] (Myc-CaP, B16, or YUMM1.7, weekly treatment), the “subcutaneous (s.c.) tumor growth” value is listed as “little effect”. Further, the “tumor regression in vivo” value in [4] (low-dose Oxali alone, mouse models of PCa) is listed as “did not cause tumor regression in vivo”. For the same compound, the “effect on HDACs in cytoplasm” value in the assay on HDACs is reported as “inhibitory effect”. In addition, the “OT-I T-cell activation and tumor cell killing” value in assay [5] is “led to T-cell activation, resulting in tumor cell killing”. For the same compound, in [6], the “cell death in vitro” value is listed as 10-15%. Besides, the IRF1 expression entry in the assay with Myc-CaP cells [7] (Oxali at 2 μM) is recorded as “induced”. The “effect on IRF1 induction by IFNγ” value with Myc-CaP cells [7] (added to IFNγ) is reported as “strongly potentiated”. The STAT1 phosphorylation entry in the assay with Myc-CaP cells [7] (added to IFNγ-treated cells) was “dramatically increased”.
